Measurements taken from patent US7419812B2, “Sequences encoding PhzO and methods” (The United States of America as represented by the …, priority 2000, dated 2008).
Where “and” joins values, the source holds several entries; their conditions need not be identical. Equal entries are not always repeated.

Assay: Spontaneous conversion (decarboxylation) of synthetic 2-OH-PCA to 2-OH-PHZ in phosphate buffer, RP-HPLC
Type: physicochemical
Procedure: Since phenazine-producing Pseudomonas spp. often produce mixtures of phenazine compounds, a generalized HPLC protocol for detection of these metabolites was developed. The protocol utilized a NOVA-PAK C18 reverse-phase Radial-PAK cartridge (4 μm, 8×100 mm) (Waters Corp., Milford, Mass.), and solvent conditions consisting of a 2-min initial wash with 35% ACN/0.1% TFA in H2O followed by a 25-min linear gradient to 100% ACN/0.1% TFA at a flow rate of 1.0 ml/min. The Waters HPLC system included a 710B WISP, 510 pumps, and a 680 automated gradient controller with a 990 photodiode array detector (Waters Corp.). Phenazine compounds were identified by retention time and ultraviolet spectrum. Standards included compounds purified from well-characterized strains (Mavrodi et al, 1998, supra; Pierson and Thomashow, 1992, supra) and chemically-synthesized compounds (PCA, 2-OH-PCA, and 2-OH-PHZ) obtained from Colour Your Enzyme (Bath, Ontario, Canada). […] 2-OHPHZ, which is formed by spontaneous decarboxylation of 2-OH-PCA (see below), was therefore used as an indicator of 2-hydroxyphenazine synthesis and when necessary, the presence of 2-OH-PCA in samples containing PCA was determined by peak purity and spectral analyses using the Waters 991 photodiode array (Waters Corp.).
Expression and Functional Analysis of PhzO. The phzO gene from P. aureofaciens 30-84 was cloned in pUCP26 under the control of the lac promoter and expressed in E. coli JM109. Cells from induced cultures expressing PhzO produced a unique band of approximately 55 kDa on SDS-PAGE gels, in good agreement with the size predicted by nucleotide sequence analysis. Induced cultures of E. coli expressing PhzO converted PCA (0.3 or 0.5 mg/ml in 5% NaHCO3) to 2-OH-PCA and 2-OH-PHZ within 3 h, whereas no such conversion occurred in control cultures harboring only pUCP26 (FIG. 2). […] To determine whether PhzO is responsible for this reaction in P. aureofaciens 30-84, a tetracycline resistance gene was inserted into phzO and introduced in the genome by homologous recombination. […]

2-OH-PHZ as share of the total phenazine present (0.1 M sodium phosphate buffer pH 4.0, 18 h): 0.2%
2-OH-PCA initially present converted to 2-OH-PHZ (0.1 M sodium phosphate buffer pH 6.0, 18 h): 33% and 33.3%
2-OH-PCA initially present converted to 2-OH-PHZ (0.1 M sodium phosphate buffer pH 8.0, 18 h): 62% and 64%
Compound: O=C(O)c1c(O)ccc2nc3ccccc3nc12 [2-OH-PCA, 2-hydroxyphenazine-1-carboxylic acid]
